Among the test systems are SNB-75; OVCAR-5; NCI/ADR-RES; IGROV-1; HCT-116; SK-OV-3; SW-620; U-251; RXF 393; HT-29; A498; SF-295; LOX IMVI; SN12C; CCRF-CEM; T47D; OVCAR-3; SR; M14; HOP-62.
Holding throughout (experiment): DTP human tumour cell line panel, 48 h

Molecules are shown by their SMILES.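 48-hour exposure; five concentrations; linearly interpolated endpoints. GI50 = concentration required for 50% inhibition of growth.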 Calls of active or inactive are those of the source. No stated cut-off is given here; in the data, active = GI50 up to about 1.1 µM and inactive = higher.

The GI50 is the concentration that inhibits growth by half. With `COc1ccc(/N=c2/[nH]c(N)c(C(=O)c3ccc(OC)cc3)s2)cc1`, the GI50 with SNB-75 was 0.31 µM (active); in the experiment with OVCAR-5, 15.3 µM (inactive); in the experiment with NCI/ADR-RES it was 0.211 µM (active); with IGROV-1, 0.471 µM (active); in the experiment with HCT-116, 0.365 µM (active); with SK-OV-3, 0.376 µM (active). In addition, the GI50 with SW-620 was 0.273 µM (active); with U-251, 0.31 µM (active); in the experiment on RXF 393, 0.324 µM (active); with HT-29, 0.316 µM (active); in the experiment on A498, 0.46 µM (active); in the experiment on SF-295 it was 0.159 µM (active). Further, the GI50 in the experiment with LOX IMVI was 0.596 µM (active); in the experiment on SN12C, 1.93 µM (inactive); in the experiment with CCRF-CEM, 0.183 µM (active); in the experiment with T47D it was 18.7 µM (inactive); in the experiment with OVCAR-3 it was 0.255 µM (active).

Consider `CCOc1cc(C(c2c(O)c3ccccc3oc2=O)c2c(O)c3ccccc3oc2=O)ccc1OC`, for which the GI50 in the experiment with SR is 28.1 µM (inactive); in the experiment with OVCAR-5, 19.6 µM (inactive); in the experiment on NCI/ADR-RES, 27.4 µM (inactive); in the experiment with M14 it was 19.1 µM (inactive); in the experiment on IGROV-1, 17.7 µM (inactive); with HCT-116, 19.5 µM (inactive). Moreover, the GI50 was 16.7 µM (inactive) with SK-OV-3; 35.4 µM (inactive) in the experiment on SW-620; 15.8 µM (inactive) in the experiment on U-251; 18.2 µM (inactive) in the experiment on HOP-62; 24.2 µM (inactive) with HT-29; 19.6 µM (inactive) in the experiment with A498. The GI50 with SF-295 was 19.4 µM (inactive); in the experiment with LOX IMVI, 20.6 µM (inactive); in the experiment on SN12C, 18.8 µM (inactive); in the experiment on CCRF-CEM, 22.1 µM (inactive); in the experiment on T47D, 16.1 µM (inactive); with OVCAR-3, 16.3 µM (inactive).

On to `O=S1(=O)c2ccccc2-c2nccc3ccnc1c23`, for which the GI50 is 27.7 µM (inactive) in the experiment on SNB-75; 41.2 µM (inactive) in the experiment on OVCAR-5; 20.8 µM (inactive) with NCI/ADR-RES; 19.1 µM (inactive) with M14; 7.67 µM (inactive) with IGROV-1; 12.9 µM (inactive) in the experiment with HCT-116. Further, the GI50 in the experiment with SK-OV-3 was 56.9 µM (inactive); with SW-620, 7.23 µM (inactive); in the experiment on U-251, 28.1 µM (inactive); with HOP-62, 40.7 µM (inactive); in the experiment with RXF 393 it was 34 µM (inactive); in the experiment with HT-29 it was 5.58 µM (inactive). In addition, the GI50 in the experiment on A498 was 27.5 µM (inactive); in the experiment on SF-295 it was 25 µM (inactive); in the experiment on LOX IMVI, 12.6 µM (inactive); in the experiment with SN12C it was 17.8 µM (inactive); in the experiment with CCRF-CEM, 4.02 µM (inactive); in the experiment on T47D it was 29.4 µM (inactive). Also, the GI50 with OVCAR-3 is 10.3 µM (inactive).

Consider `FC(F)(F)c1cccc(COCCN2CCN(Cc3cccc(C(F)(F)F)c3)CC2)c1`, for which the GI50 was 23.4 µM (inactive) in the experiment with SR; 13.5 µM (inactive) with SNB-75; 16.7 µM (inactive) in the experiment with OVCAR-5; 18.6 µM (inactive) in the experiment on NCI/ADR-RES; 30.1 µM (inactive) in the experiment with M14; 15.6 µM (inactive) with IGROV-1. For the same compound, the GI50 in the experiment on HCT-116 is 14.4 µM (inactive); in the experiment on SK-OV-3 it was 17.3 µM (inactive); in the experiment on SW-620, 13.1 µM (inactive); with U-251, 18.1 µM (inactive); in the experiment with HOP-62 it was 20 µM (inactive); with HT-29, 21.7 µM (inactive). Further, the GI50 was 14.9 µM (inactive) with A498; 19.7 µM (inactive) with SF-295; 18.5 µM (inactive) in the experiment with SN12C; 14.1 µM (inactive) with CCRF-CEM; 16.3 µM (inactive) with T47D; 20 µM (inactive) with OVCAR-3.

For the compound `CC(C)C(/N=C/c1ccccc1O)C(=O)O` (centres undefined), the GI50 in the experiment on SR, in the experiment on OVCAR-5, in the experiment on NCI/ADR-RES, in the experiment with M14, in the experiment on IGROV-1 and in the experiment on HCT-116 was > 100 µM (inactive) each time. Moreover, the GI50 in the experiment on SK-OV-3, in the experiment on SW-620, with U-251, in the experiment on HOP-62, in the experiment with HT-29 and in the experiment on A498 was > 100 µM (inactive) throughout. Besides, the GI50 with SF-295, with LOX IMVI, in the experiment with SN12C, in the experiment with CCRF-CEM, in the experiment with T47D and in the experiment with OVCAR-3 was > 100 µM (inactive) each time.

Regarding `COc1c(/C=C/C(C)(C)O)cc(C2CC(=O)c3c(O)cc(O)cc3O2)cc1CC=C(C)C` (centres undefined), the GI50 in the experiment with SNB-75 is 9.86 µM (inactive); in the experiment with OVCAR-5, 9.14 µM (inactive); in the experiment on NCI/ADR-RES, 12.1 µM (inactive); in the experiment on M14, 8.45 µM (inactive); in the experiment with HCT-116, 9.14 µM (inactive); in the experiment with SK-OV-3, 7.83 µM (inactive). For the same compound, the GI50 in the experiment on SW-620 was 17.3 µM (inactive); with U-251, 7.71 µM (inactive); in the experiment on RXF 393, 7.91 µM (inactive); in the experiment on HT-29, 8.91 µM (inactive); in the experiment with A498, 9.48 µM (inactive); with SF-295, 7.26 µM (inactive). The GI50 in the experiment on LOX IMVI is 4.44 µM (inactive); in the experiment with SN12C, 6.27 µM (inactive); in the experiment with CCRF-CEM, 13.2 µM (inactive); in the experiment with T47D it was 11 µM (inactive).

`O=C1CSC(=S)N1c1ccc(F)cc1F`: the GI50 was 42.3 µM (inactive) in the experiment on SNB-75; 42.2 µM (inactive) in the experiment with NCI/ADR-RES; 40.9 µM (inactive) in the experiment on M14; 51.6 µM (inactive) in the experiment with IGROV-1; > 100 µM (inactive) with HCT-116; > 100 µM (inactive) in the experiment on SK-OV-3. The GI50 in the experiment on SW-620 is > 100 µM (inactive); in the experiment on U-251, 59.2 µM (inactive); with HOP-62, > 100 µM (inactive); in the experiment on RXF 393 it was 72.9 µM (inactive); in the experiment with HT-29, 90.8 µM (inactive); in the experiment on A498, 67.9 µM (inactive). Besides, the GI50 in the experiment with SF-295 was 44.8 µM (inactive); in the experiment with LOX IMVI, 36.5 µM (inactive); in the experiment on SN12C, > 100 µM (inactive); in the experiment with CCRF-CEM, 25.6 µM (inactive); in the experiment with T47D it was 30 µM (inactive); in the experiment on OVCAR-3, 41.3 µM (inactive).

Consider `c1ccc(C[N+]23CN4CN(CN(C4)C2)C3)cc1`, for which the GI50 is 45.6 µM (inactive) in the experiment on SNB-75; > 100 µM (inactive) with OVCAR-5; 78.5 µM (inactive) in the experiment on NCI/ADR-RES; 19.7 µM (inactive) with M14; 52.2 µM (inactive) with IGROV-1; 27.7 µM (inactive) with HCT-116. Besides, the GI50 is > 100 µM (inactive) in the experiment with SK-OV-3; 24.1 µM (inactive) in the experiment on SW-620; 18.4 µM (inactive) in the experiment on U-251; 69.2 µM (inactive) in the experiment with HOP-62; 18 µM (inactive) in the experiment on RXF 393; 33.2 µM (inactive) in the experiment with HT-29. In addition, the GI50 with A498 is > 100 µM (inactive); with SF-295, > 100 µM (inactive); with LOX IMVI, 22 µM (inactive); in the experiment on SN12C, 53.2 µM (inactive); with CCRF-CEM, 11.7 µM (inactive); with T47D, 28.4 µM (inactive). In addition, the GI50 in the experiment with OVCAR-3 is > 100 µM (inactive).

Consider `CC(=O)OC/C=C(/CCl)CCC(Br)C(C)(C)Br.CC(=O)OC/C=C(\CCl)CCC(Br)C(C)(C)Br` (centres undefined), for which the GI50 in the experiment on SNB-75, in the experiment on OVCAR-5, in the experiment with NCI/ADR-RES, with M14, in the experiment on IGROV-1 and in the experiment with HCT-116 was > 10 µM (inactive) each time. Also, the GI50 in the experiment with SK-OV-3, in the experiment on SW-620, with U-251, in the experiment with HOP-62, in the experiment with RXF 393 and in the experiment on HT-29 was > 10 µM (inactive) each time. The GI50 in the experiment on A498, in the experiment on SF-295, with LOX IMVI, with SN12C, in the experiment with CCRF-CEM and with T47D was > 10 µM (inactive) each time. Further, the GI50 in the experiment on OVCAR-3 was > 10 µM (inactive).

Consider `O=C1c2ccccc2C(C2c3ccccc3C(=O)c3cc(Br)ccc32)c2ccc(Br)cc21` (centres undefined), for which the GI50 in the experiment on SNB-75 was > 100 µM (inactive); in the experiment with OVCAR-5, > 100 µM (inactive); in the experiment with NCI/ADR-RES, > 100 µM (inactive); in the experiment with M14 it was > 100 µM (inactive); in the experiment on IGROV-1, > 100 µM (inactive); in the experiment on HCT-116 it was 59.2 µM (inactive). Also, the GI50 in the experiment on SK-OV-3, in the experiment on SW-620, in the experiment on U-251, with HOP-62, in the experiment with RXF 393 and in the experiment with HT-29 was > 100 µM (inactive) throughout. The GI50 in the experiment on A498, with SF-295, with LOX IMVI, with SN12C, with T47D and with OVCAR-3 was > 100 µM (inactive) each time.

On to `N#Cc1ccc(N2CCOCC2)cc1`, for which the GI50 in the experiment on SNB-75, in the experiment on OVCAR-5, in the experiment with NCI/ADR-RES, with M14, in the experiment on IGROV-1 and in the experiment with HCT-116 was > 100 µM (inactive) each time. Besides, the GI50 in the experiment with SK-OV-3, with SW-620, in the experiment with U-251, in the experiment with HOP-62, in the experiment with RXF 393 and in the experiment on HT-29 was > 100 µM (inactive) in each case. The GI50 was 42.8 µM (inactive) in the experiment with A498; > 100 µM (inactive) with SF-295; 23 µM (inactive) in the experiment with LOX IMVI; > 100 µM (inactive) with SN12C; 0.975 µM (active) with CCRF-CEM; > 100 µM (inactive) in the experiment with T47D. The GI50 in the experiment with OVCAR-3 is > 100 µM (inactive).

For the origin of these results see ChEMBL document CHEMBL1201862, “PubChem BioAssay data set” (2004).
